≈ marks a conversion by molar mass, not a printed value.
Assays:
[1] = relative bioavailability of oral formulations in rats (plasma DSB free acid); format: in vivo, Sprague Dawley rats; details: single oral 25 mg/kg; for Cmax: male, po
Method: The following study was conducted to compare the relative bioavailability of oral formulations prepared with DSB•2NMG Form I and amorphous DSB•2NMG.
Groups of four male Sprague Dawley rats with surgically implanted jugular cannulas were given a single oral 25 mg/kg dose of DSB•2NMG (Form I or amorphous) in one of six formulations: • Group 1: 10% hydroxypropyl-β-cyclodextrin solution of amorphous DSB•2NMG; • Group 2: 10% hydroxypropyl-β-cyclodextrin solution of DSB•2NMG Form I; • Group 3: Suspension of DSB•2NMG Form I in 0.5% carboxymethylcellulose; • Group 4: Solution of DSB•2NMG Form I in 1% ethanol/10% polyethylene glycol 400/89% water; • Group 5: Solution of DSB•2NMG Form I in 10% propylene glycol/90% water; and • Group 6: Solution of DSB•2NMG Form I in water.

physchem = details: 25 °C, organic solvent or mixture, approximate solubility
[2] = male rats, carboxymethylcellulose, ethanol/PEG 400/water, propylene glycol/water and water formulations

SMILES: C=C(C)[C@@H]1CC[C@]2(C(=O)O)CC[C@]3(C)[C@H](CC[C@@H]4[C@@]5(C)CC[C@H](OC(=O)CC(C)(C)C(=O)O)C(C)(C)[C@@H]5CC[C@]43C)[C@@H]12 [DSB•2NMG Form I, 3-O-(3′,3′-dimethylsuccinyl)betulinic acid di-N-methyl-D-glucamine]
- area under the plasma concentration-time curve from time zero extrapolated to infinity (AUCINF) ([1]; male rats, 10% hydroxypropyl-β-cyclodextrin solution, average, 25 mg/kg): 23440 ng·h/mL
- exposure to DSB free acid among Form I formulations ([1]; male rats, 10% propylene glycol/water vehicle, FIG. 9): greatest exposure
- AUCINF, times greater than from Form I given in hydroxypropyl-β-cyclodextrin [1, 2]: 1.5-2 times
- DSB free acid concentrations versus Form I given in 10% hydroxypropyl-β-cyclodextrin [1, 2]: greater
- plasma concentration profile compared to amorphous DSB•2NMG formulation ([1]; male rats, hydroxypropyl-cyclodextrin formulation, FIG. 8): equivalent plasma concentration profiles
- Cmax ([1]; Sprague-Dawley, rat, plasma, 25 mg/kg, solution in 1% ethanol/10% polyethylene glycol 400/water, average): 8490 ng/mL
- Cmax ([1]; Sprague-Dawley, rat, plasma, 25 mg/kg, solution in 10% propylene glycol/water, average): 10400 ng/mL
- Cmax ([1]; Sprague-Dawley, rat, plasma, 25 mg/kg, solution in water, average): 9770 ng/mL
- Cmax ([1]; Sprague-Dawley, rat, plasma, 25 mg/kg, suspension in 0.5% carboxymethylcellulose, average): 8200 ng/mL
- solubility (physchem; 1-butanol): < 3000 µg/mL
- solubility (physchem; 1-propanol): ~5000 µg/mL (≈ 8.55 mM)
- solubility (physchem; 2-butanol): < 3000 µg/mL
- solubility (physchem; 2-propanol): < 3000 µg/mL
- solubility (physchem; acetone): < 3000 µg/mL
- solubility (physchem; dimethyl formamide): > 50000 µg/mL
- solubility (physchem; ethanol): ~5000 µg/mL (≈ 8.55 mM)

SMILES: C=C(C)[C@@H]1CC[C@]2(C(=O)O)CC[C@]3(C)[C@H](CC[C@@H]4[C@@]5(C)CC[C@H](OC(=O)CC(C)(C)C(=O)O)C(C)(C)[C@@H]5CC[C@]43C)[C@@H]12 [amorphous DSB•2NMG, 3-O-(3′,3′-dimethylsuccinyl)betulinic acid di-N-methyl-D-glucamine]
- AUC(0-inf) ([1]; Sprague-Dawley, rat, plasma, male rats, 10% hydroxypropyl-β-cyclodextrin solution, average, read-out: area under the plasma concentration-time curve from time zero extrapolated to infinity (AUCINF)): 21500 ng·h/mL
